For experiment [1], the system named is MM cell lines (MM.1S, MM.1R, OCI-MyS, OPM-1, Dox-40). Description: viability of MM cell lines (MM.1S, MM.1R, OCI-MyS, OPM-1, Dox-40). The conditions noted are these: 48 h; all cell lines; read-out: IC50 range, decrease in cell viability. The class given is cell-based. On the procedure:
Transcription factor NF-KB is linked to growth and survival of multiple myeloma (MM) cells and blockade of NF-KB activity. NPI-1387 (Formula IIB-b1; compound 24 shown above under scheme 4), a potent small-molecule inhibitor of upstream activator of NF-KB, was administered to MM cells and its effect on the viability of MM cells, including those resistant to conventional agents dexamethasone or doxorubicin is shown.

The subject of another experiment is PC3 (Prostate). Description: 48 hr cytotoxicity, PC-3. In kind it is cell-based, human. On the procedure:
B16-F10 (ATCC; CRL-6475), DU 145 (ATCC; HTB-81), HEK293 (ATCC; CRL-1573), HT-29 (ATCC; HTB-38), LoVo (ATCC; CCL-229), MDA-MB-231 (ATCC; HTB-26), MIA PaCa-2 (ATCC; CRL-1420), NCI-H292 (ATCC; CRL-1848), OVCAR-3 (ATCC, HTB-161), PANC-1 (ATCC; CRL-1469), PC-3 (ATCC; CRL-1435), RPMI 8226 (ATCC; CCL-155) and U266 (ATCC; TIB-196) are maintained in appropriate culture media. The cells are cultured in an incubator at 37° C. in 5% CO2 and 95% humidified air.
For cell growth inhibition assays, B16-F10, DU 145, HEK293, HT-29, LoVo, MDA-MB-231, MIA PaCa-2, NCI-H292, OVCAR-3, PANC-1, PC-3, RPMI 8226 and U266 cells are seeded at 1.25×10^3, 5×10^3, 1.5×10^4, 5×10^3, 5×10^3, 1×10^4, 2×10^3, 4×10^3, 1×10^4, 7.5×10^3, 5×10^3, 2×10^4, 2.5×10^4 cells/well respectively in 90 μl complete media into Corning 3904 black-walled, clear-bottom tissue culture plates. 20 mM stock solutions of compounds of Formula II, IIA, and IIB are prepared in 100% DMSO, aliquoted and stored at −80° C. Compounds of Formula II, IIA, and IIB are serially diluted and added in triplicate to the test wells resulting in final concentrations ranging from of 20 μM to 0.2 pM. […]
Following 48 hours of drug exposure, 10 μl of 0.2 mg/ml resazurin (obtained from Sigma-Aldrich Chemical Co.) in Mg^2+, Ca^2+ free phosphate buffered saline is added to each well and the plates are returned to the incubator for 3-6 hours. Since living cells metabolize Resazurin, the fluorescence of the reduction product of Resazurin is measured using a Fusion microplate fluorometer (Packard Bioscience) with λex=535 nm and λem=590 nm filters. […]
The cytotoxicity assays were performed by seeding individual cell lines at appropriate density in the 96 well flat-bottomed plates and allowed to attach for 24 hours at 37° C., 5% CO2 and 95% humidified air (RPMI 8226 and U266 cells were plated in 96 well plates on the day of compound addition). […] Cell viability was assessed 48 hours later by measuring the fluorescence of the reduction product of Resazurin by a Fusion microplate fluorometer (PerkinElmer) with λex=535 nm and λem=590 nm filters. […]

In experiment [2] the test system is NF-κB DNA binding activity. Description: NF-κB DNA binding activity, EMSA, PC-3. In kind it is cell-based. The note with it: TNF-α.
The test system of a further experiment is IκBα phosphorylation. Description: phosphorylation level of IκBα in LPS-stimulated HPBMC (western blot). The class given is cell-based, Human. The conditions noted are these: 13 μM, 20 ng/ml LPS, compared with DMSO control. On the procedure: One ml/well of 3×10^6/ml HPBMC were seeded in 6-well plate in LGM-3 medium and cultured for 12 hr at 37° C., 5% CO2 and 95% humidified air. Final concentration of 13 μM for formula (IIB-A1) (or 10 μM for TTL3) was added to HPBMC for 1 hr. DMSO was used as a control. Cells were then stimulated with 20 ng/ml LPS diluted in LGM-3 medium from 1 mg/ml stock solution for 30 min, 1 hr, 2 hr and 4 hr. At the end of each time point, cells were harvested by centrifugation and cell pellets were washed once in ice-cold 1× Dulbecco's Phosphate buffered Saline (DPBS). To prepare samples for SDS Polyacrylamide Gel Electrophoresis (SDS-PAGE), cells were lysed in RIPA buffer (50 mM Tris-HCl, pH7.4, 0.9% NaCl, 1% Triton X-100, 0.25% Na-deoxycholate, 1 mM EDTA, 2 mM Na3VO4 and 1× protease inhibitors cocktail) for 15 min on ice. Cell lysates were cleared by centrifugation at 14,000 rpm, 4° C. for 10 min. Protein concentrations of cell lysates were determined by BCA protein assay kit prior to SDS-PAGE. Equal amount of proteins from various cell lysates were resolved on 10% NuPage MES precast gels and transferred to nitrocellulose membranes according to the manufacturer's instructions. […]
Background: Immunoblotting shows a protein as a band on a membrane.

Where two headings read alike, the source gives them in different places.

Two molecules from patent US7893299B2, “Interleukin-1 and tumor necrosis factor-αmodulators; syntheses of such modulators and methods of using such modulators” (Nereus Pharmaceuticals, Inc., priority 2005, dated 2011) can be followed below.

For orientation: IC50 means the concentration that inhibits the measured activity by half. Turning to `C=CC(=O)C1(C)CCCC2(C)C3=CCC(C)(C=C)C[C@@H]3CC[C@H]12` (stereo in doubt) [NPI-1387, 1-[(1S,4aS,7R)-1,4a,7-Trimethyl-7-vinyl-1,2,3,4,4a,6,7,8,8a,9,10,10a-dodecahydro-1-phenanthrenyl]-2-propen-1-one], the IC50 in experiment [1] is 25 to 40 µM; in the experiment on PC3 (Prostate) it was 10 ± 2 µM; in the experiment on PC3 (Prostate) (Homo sapiens, 48 h), 11 ± 2 µM. Moreover, the “NF-κB DNA binding activity” value in experiment [2] was “inhibits the DNA binding activity of NF-κB in a dose-dependent manner”.

Turning to `C=C[C@@]1(C)CCC=C2[C@H]1CC[C@@H]1[C@](C)(C(=O)NC3CCCCC3)CCC[C@@]21C` [Formula (IIB-A1), N-Cyclohexylamide Derivative of TTL], the “level of IκBα phosphorylation in LPS-stimulated HPBMC” value in the experiment on IκBα phosphorylation (listed as Formula (IIB-a1)) is given as “decrease”; in the experiment with IκBα phosphorylation (listed as formula (IIB-A1)), “effectively inhibited”.
